# Results: ChEMBL document CHEMBL5370585, “Exploration and Biological Evaluation of 1,3-Diamino-7H-pyrrol[3,2-f]quinazoline Derivatives as Dihydrofolate Reductase Inhibitors” (J Med Chem, 2023)
# Columns and labels:
# [1] = test system: MCF7; assay: Cytotoxicity against human MCF7 cells measured after 72 hrs by MTT assay; format: functional, cell-based; conditions: MCF7, 72 h
# [2] = test system: Enterococcus faecalis; assay: Antibacterial activity against Enterococcus faecalis ATCC 29212 incubated for 16 to 18 hrs by CLSI based broth dilution method; format: functional; conditions: time 16-18 hrs
# [3] = test system: Staphylococcus epidermidis; assay: Antibacterial activity against Staphylococcus epidermidis ATCC 12228 incubated for 16 to 18 hrs by CLSI based broth dilution method; format: functional; conditions: time 16-18 hrs
# [4] = test system: Escherichia coli; assay: Antibacterial activity against Escherichia coli ATCC 25922 incubated for 16 to 18 hrs by CLSI based broth dilution method; format: functional; conditions: time 16-18 hrs
# [5] = test system: HepG2; assay: Cytotoxicity against human HepG2 cells measured after 72 hrs by MTT assay; format: functional, cell-based; conditions: HepG2, 72 h
# [6] = test system: HCT-116; assay: Cytotoxicity against human HCT-116 cells measured after 72 hrs by MTT assay; format: functional, cell-based; conditions: HCT-116, 72 h
# [7] = test system: Staphylococcus aureus; assay: Antibacterial activity against Staphylococcus aureus ATCC 29213 incubated for 16 to 18 hrs by CLSI based broth dilution method; format: functional; conditions: time 16-18 hrs
# [8] = biological target: T1, Dihydrofolate reductase (Homo sapiens) (UniProt P00374); assay: Inhibition of human DHFR at 1 uM incubated for 10 mins in presence of NADPH by colorimetry based analysis relative to control
# T1 sequence (whole entry): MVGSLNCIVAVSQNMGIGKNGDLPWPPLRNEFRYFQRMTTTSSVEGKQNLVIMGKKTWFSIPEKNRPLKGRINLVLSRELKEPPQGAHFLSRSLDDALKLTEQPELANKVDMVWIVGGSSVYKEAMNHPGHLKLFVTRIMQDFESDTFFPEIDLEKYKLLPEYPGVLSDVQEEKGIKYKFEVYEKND
# [9] = test system: HGC-27; assay: Cytotoxicity against human HGC-27 cells measured after 72 hrs by MTT assay; format: functional, cell-based; conditions: HGC-27, 72 h
# [10] = test system: Staphylococcus aureus; assay: Antibacterial activity against methicillin-resistant Staphylococcus aureus ATCC 43300 incubated for 16 to 18 hrs by CLSI based broth dilution method; format: functional; conditions: time 16-18 hrs
# [11] = test system: Acinetobacter baumannii; assay: Antibacterial activity against Acinetobacter baumannii ATCC 19606 incubated for 16 to 18 hrs by CLSI based broth dilution method; format: functional; conditions: time 16-18 hrs
# [12] = test system: Acinetobacter baumannii; assay: Antibacterial activity against Acinetobacter baumannii 20-1 incubated for 16 to 18 hrs by CLSI based broth dilution method; format: functional; conditions: time 16-18 hrs
# [13] = test system: Klebsiella pneumoniae; assay: Antibacterial activity against Klebsiella pneumoniae 15-1 assessed as reduction in microbial growth incubated for 16 to 18 hrs by CLSI based broth dilution method; format: functional; conditions: time 16-18 hrs
# [14] = test system: Pseudomonas aeruginosa; assay: Antibacterial activity against Pseudomonas aeruginosa ATCC 27853 incubated for 16 to 18 hrs by CLSI based broth dilution method; format: functional; conditions: time 16-18 hrs
# [15] = test system: Staphylococcus aureus; assay: Antibacterial activity against methicillin-resistant Staphylococcus aureus ATCC 33591 incubated for 16 to 18 hrs by CLSI based broth dilution method; format: functional; conditions: time 16-18 hrs
# [16] = test system: Enterococcus; assay: Antibacterial activity against Vancomycin-resistant Enterococcus ATCC 51575 incubated for 16 to 18 hrs by CLSI based broth dilution method; format: functional; conditions: time 16-18 hrs
# [17] = test system: Acinetobacter baumannii; assay: Antibacterial activity against Acinetobacter baumannii 20-2 incubated for 16 to 18 hrs by CLSI based broth dilution method; format: functional; conditions: time 16-18 hrs
# [18] = test system: Escherichia coli; assay: Antibacterial activity against Escherichia coli ECO 15-1 incubated for 16 to 18 hrs by CLSI based broth dilution method; format: functional; conditions: time 16-18 hrs
# [19] = test system: Enterococcus faecalis; assay: Antibacterial activity against Enterococcus faecalis EFA19-2 incubated for 16 to 18 hrs by CLSI based broth dilution method; format: functional; conditions: time 16-18 hrs
# [20] = test system: Staphylococcus aureus; assay: Antibacterial activity against vancomycin intermediate Staphylococcus aureus ATCC 700699 incubated for 16 to 18 hrs by CLSI based broth dilution method; format: functional; conditions: time 16-18 hrs
# [21] = test system: Klebsiella pneumoniae; assay: Antibacterial activity against Klebsiella pneumoniae ATCC 700603 assessed as reduction in microbial growth incubated for 16 to 18 hrs by CLSI based broth dilution method; format: functional; conditions: time 16-18 hrs
# [22] = test system: Escherichia coli; assay: Antibacterial activity against Escherichia coli ATCC BAA-2340 incubated for 16 to 18 hrs by CLSI based broth dilution method; format: functional; conditions: time 16-18 hrs
# [23] = test system: Staphylococcus aureus; assay: Antibacterial activity against methicillin-sensitive Staphylococcus aureus ATCC 29213 incubated for 16 to 18 hrs by CLSI based broth dilution method; format: functional; conditions: time 16-18 hrs
# [24] = test system: Staphylococcus aureus; assay: Antibacterial activity against methicillin-sensitive Staphylococcus aureus ATCC 25923 incubated for 16 to 18 hrs by CLSI based broth dilution method; format: functional; conditions: time 16-18 hrs
# [25] = test system: Enterococcus faecalis; assay: Antibacterial activity against Enterococcus faecalis EFA19-1 incubated for 16 to 18 hrs by CLSI based broth dilution method; format: functional; conditions: time 16-18 hrs
# [26] = test system: Staphylococcus aureus; assay: Antibacterial activity against methicillin-sensitive Staphylococcus aureus 15-2 incubated for 16 to 18 hrs by CLSI based broth dilution method; format: functional; conditions: time 16-18 hrs
# [27] = test system: Staphylococcus aureus; assay: Antibacterial activity against methicillin-sensitive Staphylococcus aureus 15-1 incubated for 16 to 18 hrs by CLSI based broth dilution method; format: functional; conditions: time 16-18 hrs
# [28] = test system: Acinetobacter baumannii; assay: Antibacterial activity against Acinetobacter baumannii ATCC 19606 assessed as reduction in microbial growth incubated for 16 to 18 hrs by CLSI based broth dilution method; format: functional; conditions: time 16-18 hrs
# [29] = test system: Staphylococcus aureus; assay: Antibacterial activity against vancomycin intermediate Staphylococcus aureus ATCC 700788 incubated for 16 to 18 hrs by CLSI based broth dilution method; format: functional; conditions: time 16-18 hrs
# [30] = Metabolic stability in mouse liver microsomes assessed as intrinsic clearance at 1 uM measured upto 60 mins in presence of NADPH by LC-MS/MS analysis; format: ADME, Microsome; conditions: read-out: CLH
# [31] = Metabolic stability in mouse liver microsomes assessed as hepatic clearance at 1 uM measured upto 60 mins in presence of NADPH by LC-MS/MS analysis; format: ADME, Microsome; conditions: 1 h
Structure (SMILES),IC50 [1],MIC [2],MIC [3],MIC [4],IC50 [5],IC50 [6],MIC [7],inhibition [8],IC50 [9],MIC [10],MIC [11],MIC [12],MIC [13],MIC [14],MIC [17],MIC [18],MIC [21],MIC [23],MIC [24],MIC [27],also measured
Nc1nc(N)c2c(ccc3c2ccn3Cc2ccc3ocnc3c2)n1,5870 nM,4 µg/mL,≤ 0.004 µg/mL,2 µg/mL,3650 nM,> 10000 nM,8 µg/mL,29.1%,3540 nM,2 µg/mL,> 32 µg/mL,,,,,,,,,,
Nc1nc(N)c2c(ccc3c2ccn3Cc2ccc3ncsc3c2)n1,3870 nM,0.25 µg/mL,≤ 0.004 µg/mL,0.25 µg/mL,1170 nM,> 10000 nM,0.25 µg/mL,80.6%,310 nM,0.125 µg/mL,16 µg/mL,,,,,,,,,,
Nc1nc(N)c2c(ccc3c2ccn3Cc2cccc3ccccc23)n1,460 nM,0.125 µg/mL,1 µg/mL,1 µg/mL,520 nM,> 10000 nM,0.125 µg/mL,83.9%,1010 nM,0.06 µg/mL,1 µg/mL,32 µg/mL,4 µg/mL,> 64 µg/mL,2 µg/mL,> 64 µg/mL,4 µg/mL,≤ 0.03 µg/mL,≤ 0.03 µg/mL,≤ 0.03 µg/mL,MIC [15]: ≤ 0.03 µg/mL; MIC [16]: ≤ 0.03 µg/mL; MIC [19]: ≤ 0.03 µg/mL; MIC [20]: 0.06 µg/mL; MIC [22]: > 64 µg/mL; MIC [25]: ≤ 0.03 µg/mL; MIC [26]: ≤ 0.03 µg/mL; MIC [28]: 1 µg/mL; MIC [29]: ≤ 0.03 µg/mL
COc1ccc2c(c1)[C@]13CCCC[C@@H]1[C@H](C2)N(C)CC3 [DEXTROMETHORPHAN],,,,,,,,,,,,,,,,,,,,,microsomal CLint at 1 µM [30]: 135 µL/min/mg; CLH [31]: 77 mL/min/kg
Nc1nc(N)c2c(ccc3c2ccn3Cc2ccc(C(=O)O)c3ccccc23)n1,> 10000 nM,2 µg/mL,0.5 µg/mL,> 8 µg/mL,> 10000 nM,> 10000 nM,2 µg/mL,93.5%,> 10000 nM,2 µg/mL,> 32 µg/mL,,,,,,,,,,
Nc1nc(N)c2c(ccc3c2ccn3Cc2ccc3ccccc3n2)n1,830 nM,0.06 µg/mL,0.25 µg/mL,0.5 µg/mL,270 nM,> 10000 nM,0.06 µg/mL,74.1%,210 nM,0.03 µg/mL,4 µg/mL,> 64 µg/mL,4 µg/mL,> 64 µg/mL,2 µg/mL,> 64 µg/mL,2 µg/mL,0.06 µg/mL,0.125 µg/mL,≤ 0.03 µg/mL,MIC [28]: 4 µg/mL
